Series [1] in a line: viscosity readings of titanium dioxide dispersions, Table VI B. Format: physicochemical. The following applies: for Viscosity reading of dispersion: Brookfield LVT-D @ 12 RPM, TiO2 50%.
The nature of series [2]: Hagman readings (particle size), titanium dioxide dispersion, Table VI A. The note with it: TiO2 50%. Format: physicochemical. Here is the method:
The novel benzoate esters of the invention were tested for pigment and dye dispersing efficacy. Color pastes were prepared by dispersing dry pigment into the oil phase while hand stirring and then passing each mixture through a three roll mill six times, collecting a 16 oz. sample after each pass. The samples collected were subjected to particle size measurements.

Series [3] can be described thus: organoleptic evaluation of tactile characteristics on the forearm, Table VII. Format: in vivo, individuals. The note with it: rating, 1 = Worst 5 = Best. Here is the method:
The tactile characteristics of the novel benzoate esters of the invention were determined by applying the appropriate material, neat or as a dilution with another emollient ester, lanolin or […]. The properties were evaluated organoleptically after application to the interior surface of the forearm.

A short description of series [4]: sunscreen solubility: Benzophenone-3, Table IV A. It is filed as physicochemical. The text has this:
(§1) These two sunscreens are difficult to dissolve and keep in solution for use in sunscreen formulations for optimal SPF (sun-protection factors). Higher solvency for a sunscreen ingredient is desirable as it allows higher concentrations of the sunscreen active ingredient in a formulation. This advantageously raises the SPF ratings for the formulation. The liquid organic sunscreens that are commonly used are octyl-methoxy cinnamate (OMC) and octyl salicylate (OS).
(§2) Solubility/Solvency Tables IVA and IVB show the solubility and concentrations of the sunscreen ingredient in the novel esters of the invention compared to their precursor raw materials (non-benzoate esters).

The nature of series [5]: sunscreen solubility: PARSOL 1789, Table IV B. Format: physicochemical.
Description: as §1, §2

The nature of series [6]: physical properties of benzoate esters compared to precursors, Table II. It is filed as physicochemical. An excerpt:
Absence of odor is an important factor in consumer acceptance of cosmetic and toiletry products.

Setting [7] is: 23° C., 10 gms sunscreen in 100 gms mixture.
Setting [8] is: 23° C., 15 gms sunscreen in 100 gms mixture.
Where [9] appears, read: 30° C., 10 gms sunscreen in 100 gms mixture.
The mark [10] stands for this setting: 30° C., 15 gms sunscreen in 100 gms mixture.

Where only a bound is given, the exact number is not on record here.

For the molecule `CCCCCCC(CCCCCCCCCCC(=O)OCC(CC)CCCC)OC(=O)c1ccccc1` (centres unmarked) [BOHS, benzoic acid ester of 2 ethyl hexyl 12-hydroxy stearate], the “viscosity of TiO2 dispersions (in words)” value in series [1] is on record as “much lower viscosity”. The “Viscosity reading of dispersion” value in series [1] (pass 1) is 1170 cps; in series [1] (pass 2), 1170 cps; in series [1] (pass 3), 1326 cps; in series [1] (pass 4) it was 1326 cps; in series [1] (pass 5), 1326 cps; in series [1] (pass 6) it was 1326 cps. Also, the “Hagman reading (particle size)” value in series [2] (pass 1) was at most 20 μm; in series [2] (pass 2), at most 14 μm; in series [2] (pass 3) it was at most 14 μm; in series [2] (pass 4) it was at most 10 μm; in series [2] (pass 5), at most 9 μm; in series [2] (pass 6), at most 8 μm. The molecule also had a GREASINESS/OILINESS in series [3] of 4. Also, in series [3], the “OVERALL TACTILITY” value is on record as 3. Besides, the SPREADABILITY in series [3] came out at 4. The molecule also returned a TACK in series [3] of 3. In addition, the “Sunscreen solubility (Benzophenone-3)” value in series [4] (setting [7]), in series [4] (setting [8]), in series [4] (setting [9]) and in series [4] (setting [10]) was “+” throughout. The “Sunscreen solubility (Parsol 1789)” value in series [5] (setting [7]), in series [5] (setting [8]), in series [5] (setting [9]) and in series [5] (setting [10]) was “+” throughout. In addition, in series [6] (25° C.), the “S.G. (specific gravity)” value is listed as 0.928. Moreover, in series [6] (25° C.), the TITER result is recorded as “clear”. In addition, the VISCOSITY in series [6] (Brookfield Viscometer, Spindle # 1, 10 rpm) came to 110 cps.
In the case of `CCCCCCC(CCCCCCCCCCC(=O)OCC(COC(=O)CCCCCCCCCCC(CCCCCC)OC(=O)c1ccccc1)OC(=O)CCCCCCCCCCC(CCCCCC)OC(=O)c1ccccc1)OC(=O)c1ccccc1` (centres unmarked) [BHCO, Benzoic acid ester of glyceryl-trihydroxy stearate], in series [3], the GREASINESS/OILINESS is on record as 4, the “OVERALL TACTILITY” value is on record as 3, the SPREADABILITY came to 3 and the TACK is on record as 3.
`CCCCCCC(O)CCCCCCCCCCC(=O)OCC(CC)CCCC` (centres unmarked) [OHS, octyl hydroxystearate, reference compound]: the “Sunscreen solubility (Benzophenone-3)” value in series [4] (setting [7]), in series [4] (setting [9]) and in series [4] (setting [10]) was “+” in each case. Moreover, the “Sunscreen solubility (Parsol 1789)” value in series [5] (setting [7]), in series [5] (setting [9]) and in series [5] (setting [10]) was “+” in each case.

The values above are taken from patent US5959130A, “Castor based benzoate esters” (Finetex, Inc., priority 1997, dated 1999).
